The source of these data is PMC10302582, “Unveiling the Potential of BenzylethyleneAryl–Urea Scaffolds for the Design of New Onco Immunomodulating Agents” (Pharmaceuticals, 2023).

Like-named read-outs stand apart in the source and are kept apart here.

Test [1] deals with T1, PD-L1 (Homo sapiens, UniProt Q9NZQ7).
T1 construct: assess the effect of our new ureas on these two proteins only on the HT-29 cancer cell line through the use of flow cytometry; endogenous in cells; host or cells: HT-29
Kind of test: PD-L1 relative quantification by flow cytometry in HT-29 cells. The format is cell-based. The conditions noted are these: for inhibition rate of PD-L1: HT-29, total PD-L1, dose not stated; for total PD-L1 (%) expression: HT-29 cells, 24 h, relative to DMSO control = 100. As to the method:
(§1) The cells were incubated for a period of time of one day with doses of each of the selected compounds at two different doses: 20 and 100 µM concentrations.
The effects of the compounds on the target in the cancer cell lines compounds were tested using 20 and 100 µM doses. For that, 10^5 cells per well were seeded on a 12-well plate for 24 h with the corresponding dose of the tested compound in a total volume of 500 μL of cell media. To determine the total PD-L1 and VEGFR-2, the cells were collected and fixed with 4% in a PBS of formaldehyde. After this, a treatment with 0.5% in PBS Triton^TM X-100 permeabilized the membranes. Finally, the cells were treated with FITC Mouse monoclonal Anti-Human VEGFR-2 (ab184903) and Alexa Fluor® 647 Rabbit monoclonal Anti-PD-L1 (ab215251).
(§2) To determine surface PD-L1 and VEGFR-2, the assay used was similar to the above but avoided the permeabilization step (Triton^TM X-100).

For test [2], the system named is THP-1 cells co-cultured with HT-29. Description: Immune cell proliferation in co-cultures of HT-29/THP-1. The format is cell-based, human. The conditions noted are these: 100 μM. As to the method:
We also determined the effect of the selected compounds on the human monocyte cells THP-1 in the described co-cultures (see Table 6).
To determine the action of the compounds on cancer cell proliferation in co-culture with immune cells, 10^5 or 2 × 10^5 of the HT-29 cells line were seeded in each well of 12-well plates and left at 37 °C for 24 h. Then, the cancer cells were treated with IFN-γ (10 ng/mL; human, Invitrogen®, Waltham, MA, USA) containing 5 × 10^5 or 10^5, respectively, of THP-1 cells per well and the corresponding compound at 100 μM or DMSO for the positive control. After 24 h/48 h of incubation, the supernatants were collected to establish the alive THP-1 cells using FSC and SCC flow cytometry. In addition, cancer cells were collected with trypsin, fixed with 4% in PBS paraformaldehyde and counted using flow cytometry.

For test [3], the system named is A-549 (pulmonary adenocarcinoma). Kind of test: MTT cell proliferation assay, A-549. The format is cell-based. The conditions noted are these: Homo sapiens, read-out: IC50 A-549. As to the method: After the supernatant was discarded, we solved the formazan crystal in 100 µL of DMSO. The absorbance was then registered at 550 nm using a plate lector. For all concentrations of any compound, cell viability was expressed as the percentage of the ratio between the mean absorbance of the treated cells and the mean absorbance of the untreated cells. Three to five experiments were performed to establish the IC50 values (i.e., concentration half inhibiting cell proliferation, we used GraphPad Prism 7 software).

Test [4] concerns the target T2, VEGFR-2 (Homo sapiens, UniProt P35968).
T2 construct: assess the effect of our new ureas on these two proteins only on the HT-29 cancer cell line through the use of flow cytometry; endogenous in cells; host or cells: HT-29
Kind of test: VEGFR-2 relative quantification by flow cytometry in HT-29 cells. The test is classed as cell-based. Conditions: for total VEGFR-2 (%) expression: HT-29 cells, 24 h, relative to DMSO control = 100. As to the method:
as §1
The effects of the compounds on the target in the cancer cell lines compounds were tested using 20 and 100 µM doses. For that, 10^5 cells per well were seeded on a 12-well plate for 24 h with the corresponding dose of the tested compound in a total volume of 500 μL of cell media. To determine the total PD-L1 and VEGFR-2, the cells were collected and fixed with 4% in a PBS of formaldehyde. After this, a treatment with 0.5% in PBS Triton^TM X-100 permeabilized the membranes.
as §2

T2 sequence (P35968 20-1356): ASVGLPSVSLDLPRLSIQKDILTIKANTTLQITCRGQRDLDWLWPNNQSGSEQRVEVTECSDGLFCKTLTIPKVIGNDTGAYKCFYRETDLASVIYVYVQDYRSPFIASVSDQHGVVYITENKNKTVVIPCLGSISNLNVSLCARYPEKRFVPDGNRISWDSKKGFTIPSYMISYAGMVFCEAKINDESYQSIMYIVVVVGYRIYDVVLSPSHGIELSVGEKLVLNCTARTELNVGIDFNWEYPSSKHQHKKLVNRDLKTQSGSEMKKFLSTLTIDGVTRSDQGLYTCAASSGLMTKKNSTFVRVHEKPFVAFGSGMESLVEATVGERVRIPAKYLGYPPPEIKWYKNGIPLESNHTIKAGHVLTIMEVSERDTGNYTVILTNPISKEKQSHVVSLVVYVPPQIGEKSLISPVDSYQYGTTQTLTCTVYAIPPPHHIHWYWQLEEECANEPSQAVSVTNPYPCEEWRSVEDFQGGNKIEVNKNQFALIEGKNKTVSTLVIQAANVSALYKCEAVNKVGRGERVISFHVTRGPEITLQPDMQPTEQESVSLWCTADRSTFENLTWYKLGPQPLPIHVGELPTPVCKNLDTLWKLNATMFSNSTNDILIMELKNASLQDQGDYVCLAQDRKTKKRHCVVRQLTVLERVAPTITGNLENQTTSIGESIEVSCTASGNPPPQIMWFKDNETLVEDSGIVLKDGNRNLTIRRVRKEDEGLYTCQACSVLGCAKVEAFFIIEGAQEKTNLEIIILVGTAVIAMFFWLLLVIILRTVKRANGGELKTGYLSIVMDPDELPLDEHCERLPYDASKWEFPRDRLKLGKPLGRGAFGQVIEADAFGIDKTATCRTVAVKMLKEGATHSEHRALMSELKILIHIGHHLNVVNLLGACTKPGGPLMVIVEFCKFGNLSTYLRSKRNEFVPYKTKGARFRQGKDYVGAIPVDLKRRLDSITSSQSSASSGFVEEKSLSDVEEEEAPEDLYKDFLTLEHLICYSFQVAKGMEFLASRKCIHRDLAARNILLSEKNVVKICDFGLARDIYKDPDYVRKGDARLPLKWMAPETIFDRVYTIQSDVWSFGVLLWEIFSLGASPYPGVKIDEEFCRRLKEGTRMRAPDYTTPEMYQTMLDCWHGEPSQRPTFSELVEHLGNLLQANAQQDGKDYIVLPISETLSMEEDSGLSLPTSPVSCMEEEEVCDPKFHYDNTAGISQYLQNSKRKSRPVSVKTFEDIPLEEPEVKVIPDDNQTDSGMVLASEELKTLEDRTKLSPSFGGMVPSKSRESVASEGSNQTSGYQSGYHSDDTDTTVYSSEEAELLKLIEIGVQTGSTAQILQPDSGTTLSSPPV
T1 sequence (Q9NZQ7 19-290): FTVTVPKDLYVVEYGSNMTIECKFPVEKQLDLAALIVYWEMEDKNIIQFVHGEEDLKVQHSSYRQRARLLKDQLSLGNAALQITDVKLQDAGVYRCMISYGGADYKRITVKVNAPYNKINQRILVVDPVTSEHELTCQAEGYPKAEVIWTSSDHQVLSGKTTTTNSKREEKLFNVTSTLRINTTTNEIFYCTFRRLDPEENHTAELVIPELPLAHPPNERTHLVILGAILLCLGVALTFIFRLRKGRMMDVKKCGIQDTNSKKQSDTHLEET

Take `COc1ccc(CCCc2cccc(NC(=O)Oc3ccccc3)c2)cc1` [C.1]: in test [1], the “inhibition rate of PD-L1” value turned out to be 30%. Besides, the “total PD-L1 (%) expression” value in test [1] (20 μM) amounted to 70 ± 16%; in test [1] (100 μM), 91 ± 7%. Further, the “THP-1 cell proliferation in co-culture” value worked out at 104 ± 8 in test [2] (1:5 HT-29/THP-1, 24 h); 97 ± 8 in test [2] (1:5 HT-29/THP-1, 48 h); 124 ± 6 in test [2] (2:1 HT-29/THP-1, 24 h); 113 ± 7 in test [2] (2:1 HT-29/THP-1, 48 h). The IC50 in test [3] (A549, 48 h) is greater than 100 µM. The figures for the “total VEGFR-2 (%) expression” value in test [4] (20 μM) and in test [4] (100 μM) were 51 ± 10% and 191 ± 87%, respectively.

`COc1ccc(CCCc2cccc(NC(=O)Nc3ccc(F)cc3)c2)cc1` [C.3]: in test [1], the “inhibition rate of PD-L1” value is 30%. The entries for the “total PD-L1 (%) expression” value in test [1] (20 μM) and in test [1] (100 μM) were 70 ± 4% and 222 ± 69%, respectively. Further, the “THP-1 cell proliferation in co-culture” value in test [2] (1:5 HT-29/THP-1, 24 h) was 87 ± 8; in test [2] (1:5 HT-29/THP-1, 48 h), 78 ± 5; in test [2] (2:1 HT-29/THP-1, 24 h), 113 ± 26; in test [2] (2:1 HT-29/THP-1, 48 h) it was 91 ± 18. For the same molecule, the IC50 in test [3] (A549, MTT, 48 h treatment) is greater than 100 µM. The “total VEGFR-2 (%) expression” value is listed as 38 ± 7% in test [4] (20 μM) and 40 ± 7% in test [4] (100 μM).

For the molecule `COc1ccc(CCCc2cccc(NC(=O)Nc3ccc(OC)cc3)c2)cc1` [C.12], in test [1], the “inhibition rate of PD-L1” value is given as “around 75%”. In addition, the “total PD-L1 (%) expression” value in test [1] (20 μM) was determined as 25 ± 5%; in test [1] (100 μM), 96 ± 1%. Also, the “THP-1 cell proliferation in co-culture” value came out at 95 ± 18 in test [2] (1:5 HT-29/THP-1, 24 h); 90 ± 6 in test [2] (1:5 HT-29/THP-1, 48 h); 94 ± 5 in test [2] (2:1 HT-29/THP-1, 24 h); 90 ± 2 in test [2] (2:1 HT-29/THP-1, 48 h). The IC50 in test [3] (A549, MTT, 48 h treatment) was 1.2 ± 0.2 µM. Also, the “inhibition rate of VEGFR-2” value in test [4] (HT-29, total VEGFR-2, dose not stated) is recorded as “around 75%”. Moreover, the “total VEGFR-2 (%) expression” value in test [4] (20 μM) is recorded as 30 ± 10%; in test [4] (100 μM) it was 65 ± 45%.

Consider `COc1ccc(CCCc2cccc(NC(=O)Nc3ccccc3OC)c2)cc1` [C.14], for which, in test [1], the “inhibition rate of PD-L1” value was 50%. Also, the figures for the “total PD-L1 (%) expression” value in test [1] (20 μM) and in test [1] (100 μM) were 45 ± 11% and 145 ± 8%, respectively. Moreover, the “THP-1 cell proliferation in co-culture” value worked out at 99 ± 10 in test [2] (1:5 HT-29/THP-1, 24 h); 91 ± 6 in test [2] (1:5 HT-29/THP-1, 48 h); 110 ± 7 in test [2] (2:1 HT-29/THP-1, 24 h); 86 ± 3 in test [2] (2:1 HT-29/THP-1, 48 h). In test [3] (A549, MTT, 48 h treatment), the IC50 is greater than 100 µM. The “total VEGFR-2 (%) expression” value came to 228 ± 66% in test [4] (20 μM) and 32 ± 9% in test [4] (100 μM).
